A short description of assay [1]: Fluorescence Cell-Based Dose Response to Identify Inhibitors of Thrombin Receptor-Activating Peptide SFLLRN-Mediated P-Selectin Induction on Platelets. [Related pubchem assays: 1663 (Primary HTS), 1889 (retest at dose ), 1891 (counterscreen), 1678 (Project Summary)]. Type of assay: functional. A general note: Counterscreens check selectivity or assay interference.

Assay [2] in a line: Luminescence Cell-Based Dose Confirmation HTS to Identify Inhibitors of Platelet Dense Granule Release. [Related pubchem assays: 1663 (Primary HTS), 1678 (Summary of Project)]. Type of assay: functional.
In assay [3] the target is Luciferin 4-monooxygenase (Photinus pyralis, UniProt P08659). Put plainly: firefly luciferase enzyme inhibitors, dose response, biochemical, luminescence (AID 1891).
Luciferin 4-monooxygenase, sequence (P08659 whole entry): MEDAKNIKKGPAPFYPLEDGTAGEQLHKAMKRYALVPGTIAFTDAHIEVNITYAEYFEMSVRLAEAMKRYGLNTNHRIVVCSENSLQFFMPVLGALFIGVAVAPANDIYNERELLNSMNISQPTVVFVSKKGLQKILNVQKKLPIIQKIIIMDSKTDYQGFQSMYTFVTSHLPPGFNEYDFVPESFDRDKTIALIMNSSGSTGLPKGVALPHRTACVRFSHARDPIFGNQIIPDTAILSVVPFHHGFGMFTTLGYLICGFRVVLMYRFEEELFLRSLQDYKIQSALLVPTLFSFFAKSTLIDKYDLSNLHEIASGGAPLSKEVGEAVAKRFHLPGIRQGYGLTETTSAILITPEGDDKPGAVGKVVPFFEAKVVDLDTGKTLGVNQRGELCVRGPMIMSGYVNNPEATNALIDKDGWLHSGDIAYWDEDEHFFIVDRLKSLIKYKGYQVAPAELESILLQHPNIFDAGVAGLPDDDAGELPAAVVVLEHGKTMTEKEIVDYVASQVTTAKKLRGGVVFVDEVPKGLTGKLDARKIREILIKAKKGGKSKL
Assay [4] addresses Diphosphomevalonate decarboxylase (Streptococcus pneumoniae serotype 2 (strain D39 / NCTC 7466), UniProt Q9FD53). The assay can be described thus: S. pneumoniae DPM-DC inhibition retest, confirmation, biochemical, cuvette format, coupled NADH fluorescence (AID 1028). In kind it is functional.
A further assay deals with Vero. The assay can be described thus: host cell cytotoxicity of antiviral hits, dose response, cytotoxicity control for West Nile virus antiviral project, secondary assay (AID 1650). In kind it is functional. To be noted: Chlorocebus sabaeus.
Assay [5] can be described thus: inhibitors of PGC1a acetylation in cells, dose response, cell-based, cherry-picked samples (AID 720514).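 Note: potency may reflect raised or lowered acetylation signal.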 In kind it is functional.
In assay [6] the target is Voltage-gated inwardly rectifying potassium channel KCNH2 (Homo sapiens, UniProt Q12809). Put plainly: hERG protection from proarrhythmic block, potency, dose response, cell-based, thallium flux (AID 2121). Type of assay: ADME.
Voltage-gated inwardly rectifying potassium channel KCNH2, sequence (Q12809 whole entry): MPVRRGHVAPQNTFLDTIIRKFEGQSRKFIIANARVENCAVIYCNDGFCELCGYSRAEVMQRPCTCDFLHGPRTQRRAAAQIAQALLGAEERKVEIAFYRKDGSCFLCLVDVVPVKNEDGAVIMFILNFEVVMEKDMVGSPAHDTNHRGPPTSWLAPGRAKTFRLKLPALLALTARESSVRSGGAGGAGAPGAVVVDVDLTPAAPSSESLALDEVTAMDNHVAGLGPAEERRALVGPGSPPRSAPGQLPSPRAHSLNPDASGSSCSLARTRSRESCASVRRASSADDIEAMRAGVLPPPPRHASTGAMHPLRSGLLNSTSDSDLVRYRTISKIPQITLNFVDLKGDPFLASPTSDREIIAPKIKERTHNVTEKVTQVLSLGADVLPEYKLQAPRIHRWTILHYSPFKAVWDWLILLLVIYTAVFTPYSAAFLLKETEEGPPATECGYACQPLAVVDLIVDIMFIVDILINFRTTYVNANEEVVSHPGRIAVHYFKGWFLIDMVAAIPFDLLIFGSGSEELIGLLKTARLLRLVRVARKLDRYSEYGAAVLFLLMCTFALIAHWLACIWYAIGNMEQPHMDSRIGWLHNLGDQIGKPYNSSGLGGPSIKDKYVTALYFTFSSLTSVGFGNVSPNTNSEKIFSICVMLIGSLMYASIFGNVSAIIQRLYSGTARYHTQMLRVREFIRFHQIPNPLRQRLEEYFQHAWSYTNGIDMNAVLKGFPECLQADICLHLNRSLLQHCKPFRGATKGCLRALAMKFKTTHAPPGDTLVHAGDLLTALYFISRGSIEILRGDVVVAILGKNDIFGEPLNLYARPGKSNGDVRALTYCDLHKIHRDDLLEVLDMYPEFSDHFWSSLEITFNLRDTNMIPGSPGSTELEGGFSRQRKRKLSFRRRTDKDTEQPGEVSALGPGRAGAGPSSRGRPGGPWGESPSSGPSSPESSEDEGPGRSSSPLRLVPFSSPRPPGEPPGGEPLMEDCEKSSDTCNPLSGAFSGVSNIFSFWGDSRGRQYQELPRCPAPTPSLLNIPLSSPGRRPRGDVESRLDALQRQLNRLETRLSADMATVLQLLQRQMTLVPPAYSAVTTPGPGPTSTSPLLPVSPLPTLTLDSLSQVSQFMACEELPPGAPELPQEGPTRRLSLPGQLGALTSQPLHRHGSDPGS
Assay [7] concerns the target T1, Aryl hydrocarbon receptor (Homo sapiens, UniProt P35869).
T1 sequence (P35869 whole entry): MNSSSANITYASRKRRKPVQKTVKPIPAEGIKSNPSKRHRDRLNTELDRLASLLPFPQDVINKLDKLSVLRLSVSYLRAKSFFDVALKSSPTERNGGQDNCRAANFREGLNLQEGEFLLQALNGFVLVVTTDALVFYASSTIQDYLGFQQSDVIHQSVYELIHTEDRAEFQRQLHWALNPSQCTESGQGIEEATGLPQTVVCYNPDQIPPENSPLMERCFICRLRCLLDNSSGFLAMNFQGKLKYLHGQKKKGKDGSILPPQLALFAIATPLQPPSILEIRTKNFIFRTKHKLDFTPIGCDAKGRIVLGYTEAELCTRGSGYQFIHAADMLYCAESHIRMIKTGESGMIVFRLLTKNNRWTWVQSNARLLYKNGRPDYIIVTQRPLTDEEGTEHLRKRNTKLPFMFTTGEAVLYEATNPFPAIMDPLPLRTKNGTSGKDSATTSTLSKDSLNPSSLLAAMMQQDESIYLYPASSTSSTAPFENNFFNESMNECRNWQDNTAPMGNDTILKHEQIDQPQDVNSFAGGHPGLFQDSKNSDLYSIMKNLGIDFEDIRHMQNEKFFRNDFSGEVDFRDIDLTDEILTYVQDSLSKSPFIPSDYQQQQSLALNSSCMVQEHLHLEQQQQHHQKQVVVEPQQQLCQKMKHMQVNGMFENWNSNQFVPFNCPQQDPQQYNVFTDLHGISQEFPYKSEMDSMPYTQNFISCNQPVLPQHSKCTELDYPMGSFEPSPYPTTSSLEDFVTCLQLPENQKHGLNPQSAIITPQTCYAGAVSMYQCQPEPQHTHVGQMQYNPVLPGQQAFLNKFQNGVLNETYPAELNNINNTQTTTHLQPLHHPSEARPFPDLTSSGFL
The assay can be described thus: Luminescence-based cell-based high throughput dose response assay for activators of the Aryl Hydrocarbon Receptor (AHR). [Related pubchem assays: 2796 (Primary screen (AHR activators in singlicate)), 2845 (Confirmation screen (AHR activators in triplicate)), 434939 (Counterscreen (PXR activators in triplicate)), 2804 (Summary (AHR activators))]. Type of assay: ADME.

Another assay deals with T2, Protein skinhead-1 (Caenorhabditis elegans, UniProt P34707).
T2 sequence (P34707 whole entry): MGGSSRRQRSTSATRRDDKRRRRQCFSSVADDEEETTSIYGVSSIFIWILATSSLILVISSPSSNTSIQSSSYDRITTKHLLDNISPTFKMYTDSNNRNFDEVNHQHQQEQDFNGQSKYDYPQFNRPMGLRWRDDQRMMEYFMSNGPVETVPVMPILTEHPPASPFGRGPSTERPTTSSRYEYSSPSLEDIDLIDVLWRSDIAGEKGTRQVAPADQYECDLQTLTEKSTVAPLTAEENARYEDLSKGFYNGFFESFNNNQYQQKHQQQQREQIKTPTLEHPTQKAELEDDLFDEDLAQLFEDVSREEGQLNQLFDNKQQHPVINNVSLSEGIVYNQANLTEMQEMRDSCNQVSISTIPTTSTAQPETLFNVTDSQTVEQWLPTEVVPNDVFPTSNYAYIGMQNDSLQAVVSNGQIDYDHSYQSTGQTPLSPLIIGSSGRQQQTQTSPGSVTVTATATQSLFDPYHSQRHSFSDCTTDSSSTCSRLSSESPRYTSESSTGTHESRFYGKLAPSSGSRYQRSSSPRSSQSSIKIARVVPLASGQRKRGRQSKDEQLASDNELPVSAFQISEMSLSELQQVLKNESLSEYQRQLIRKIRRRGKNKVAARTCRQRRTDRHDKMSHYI
Type of assay: functional.

Assay [8] concerns the target Sphingosine 1-phosphate receptor 2 (Homo sapiens, UniProt O95136). The assay can be described thus: Dose Response Cell Based Assay for Antagonists of the S1P2 Receptor. [Related pubchem assays: 856, 736 ]. Type of assay: functional.
For the next assay, the target named is NADPH oxidase 1 (Homo sapiens, UniProt Q9Y5S8). Put plainly: Late-stage luminescence-based cell-based dose response assay to identify inhibitors of NADPH oxidase 1 (NOX1): Purchased analogs 2. Type of assay: functional.
NADPH oxidase 1, sequence (Q9Y5S8 whole entry): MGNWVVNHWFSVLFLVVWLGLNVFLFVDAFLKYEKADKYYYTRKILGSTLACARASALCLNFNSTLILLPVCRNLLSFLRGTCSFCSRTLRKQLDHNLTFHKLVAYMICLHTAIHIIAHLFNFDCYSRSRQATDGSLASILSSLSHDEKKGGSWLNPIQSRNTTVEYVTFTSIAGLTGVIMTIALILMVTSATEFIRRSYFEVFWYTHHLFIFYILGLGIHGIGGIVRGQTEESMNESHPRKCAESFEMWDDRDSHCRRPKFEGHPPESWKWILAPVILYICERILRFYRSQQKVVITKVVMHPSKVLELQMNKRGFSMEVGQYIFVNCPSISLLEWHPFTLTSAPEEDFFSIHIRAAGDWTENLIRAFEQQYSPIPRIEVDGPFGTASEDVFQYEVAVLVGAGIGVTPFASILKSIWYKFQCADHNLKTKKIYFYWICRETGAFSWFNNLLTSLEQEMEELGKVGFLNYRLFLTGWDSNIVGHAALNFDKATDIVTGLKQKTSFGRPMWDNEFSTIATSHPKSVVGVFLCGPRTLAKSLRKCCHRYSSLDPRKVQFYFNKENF
The next assay deals with Cytochrome P450 3A4 (Homo sapiens, UniProt P08684). To be noted: Potency.
Cytochrome P450 3A4, sequence (P08684 whole entry): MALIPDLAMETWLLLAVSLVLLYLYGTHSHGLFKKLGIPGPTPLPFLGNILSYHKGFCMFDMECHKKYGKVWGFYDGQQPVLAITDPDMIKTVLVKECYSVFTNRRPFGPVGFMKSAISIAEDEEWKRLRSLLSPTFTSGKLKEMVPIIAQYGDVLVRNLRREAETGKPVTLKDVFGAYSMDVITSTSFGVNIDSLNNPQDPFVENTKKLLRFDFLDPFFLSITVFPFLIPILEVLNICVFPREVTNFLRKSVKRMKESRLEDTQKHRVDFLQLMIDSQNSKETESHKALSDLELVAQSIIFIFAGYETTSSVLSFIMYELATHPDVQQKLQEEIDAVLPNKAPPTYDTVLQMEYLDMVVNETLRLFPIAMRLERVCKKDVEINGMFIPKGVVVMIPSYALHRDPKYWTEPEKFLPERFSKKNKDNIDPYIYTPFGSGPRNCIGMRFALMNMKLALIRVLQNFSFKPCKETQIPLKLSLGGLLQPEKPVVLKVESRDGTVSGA
The target of a further assay is Cytochrome P450 2D6 (Homo sapiens, UniProt P10635). Put plainly: qHTS Assay for Inhibitors and Substrates of Cytochrome P450 2D6. [Related pubchem assays: 410 ]. To be noted: read-out: Potency. Type of assay: ADME. (In general: In qHTS, concentration-response curves come from the screen itself.)
Cytochrome P450 2D6, sequence (P10635 whole entry): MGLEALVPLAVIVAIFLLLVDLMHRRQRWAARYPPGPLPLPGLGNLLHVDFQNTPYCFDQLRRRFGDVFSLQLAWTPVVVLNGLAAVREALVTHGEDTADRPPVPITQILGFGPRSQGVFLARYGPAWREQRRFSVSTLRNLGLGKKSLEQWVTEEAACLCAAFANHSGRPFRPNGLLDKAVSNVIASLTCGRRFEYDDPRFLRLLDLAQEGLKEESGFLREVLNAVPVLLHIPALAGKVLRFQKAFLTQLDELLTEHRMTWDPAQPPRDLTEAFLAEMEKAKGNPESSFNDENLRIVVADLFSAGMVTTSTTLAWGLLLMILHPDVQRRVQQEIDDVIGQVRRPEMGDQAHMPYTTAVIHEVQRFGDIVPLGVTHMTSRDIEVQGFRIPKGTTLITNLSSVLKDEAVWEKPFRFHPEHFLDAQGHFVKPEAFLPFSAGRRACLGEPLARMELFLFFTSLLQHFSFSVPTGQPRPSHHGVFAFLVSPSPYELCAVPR
Another assay has as its target Cytochrome P450 2C19 (Homo sapiens, UniProt P33261). The assay can be described thus: qHTS Assay for Inhibitors and Substrates of Cytochrome P450 2C19. [Related pubchem assays: 410 ]. In kind it is ADME. To be noted: read-out: Potency.

Activity calls are given as the source filed them. Bounds are passed on as bounds.

Sphingosine 1-phosphate receptor 2, sequence (O95136 whole entry): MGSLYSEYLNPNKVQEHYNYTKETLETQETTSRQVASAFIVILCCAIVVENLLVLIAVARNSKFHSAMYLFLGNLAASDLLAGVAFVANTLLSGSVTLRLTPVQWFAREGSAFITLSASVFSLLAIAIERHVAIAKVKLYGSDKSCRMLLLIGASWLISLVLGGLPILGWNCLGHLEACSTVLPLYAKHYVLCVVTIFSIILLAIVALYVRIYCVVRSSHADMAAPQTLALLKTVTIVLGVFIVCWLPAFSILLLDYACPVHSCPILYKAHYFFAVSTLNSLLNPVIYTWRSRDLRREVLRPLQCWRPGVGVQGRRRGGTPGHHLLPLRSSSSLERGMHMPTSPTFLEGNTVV
Cytochrome P450 2C19, sequence (P33261 whole entry): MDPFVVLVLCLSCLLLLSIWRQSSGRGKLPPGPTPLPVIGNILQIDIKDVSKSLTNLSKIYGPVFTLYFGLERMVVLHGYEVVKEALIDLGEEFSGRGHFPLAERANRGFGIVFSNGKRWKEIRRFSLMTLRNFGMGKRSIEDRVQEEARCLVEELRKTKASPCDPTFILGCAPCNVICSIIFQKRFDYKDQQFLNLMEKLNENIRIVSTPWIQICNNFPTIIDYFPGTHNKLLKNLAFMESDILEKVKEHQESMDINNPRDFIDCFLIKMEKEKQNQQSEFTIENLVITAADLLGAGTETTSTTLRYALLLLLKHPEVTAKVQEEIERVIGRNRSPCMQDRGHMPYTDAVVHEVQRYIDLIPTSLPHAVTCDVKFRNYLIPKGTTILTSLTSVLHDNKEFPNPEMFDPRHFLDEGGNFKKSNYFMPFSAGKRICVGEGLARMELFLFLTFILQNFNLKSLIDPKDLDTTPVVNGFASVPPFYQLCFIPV
Diphosphomevalonate decarboxylase, sequence (Q9FD53 whole entry): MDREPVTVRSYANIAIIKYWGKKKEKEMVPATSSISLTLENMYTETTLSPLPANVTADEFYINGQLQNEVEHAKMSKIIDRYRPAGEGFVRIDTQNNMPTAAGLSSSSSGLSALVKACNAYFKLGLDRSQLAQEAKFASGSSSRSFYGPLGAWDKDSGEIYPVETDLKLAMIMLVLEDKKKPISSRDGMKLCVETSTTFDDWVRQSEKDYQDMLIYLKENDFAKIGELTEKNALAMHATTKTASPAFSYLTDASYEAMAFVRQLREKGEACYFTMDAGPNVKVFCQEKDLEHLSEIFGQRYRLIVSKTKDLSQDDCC

Consider `COc1cc2c(cc1OC)-c1cc(Nc3ccc(F)cc3)nc(=O)n1CC2`, for which the values for the EC50 in assay [1], in assay [2] and in assay [3] were < 0.3 µM (active), 1.82 µM (active) and > 112 µM (not active), respectively. On to `CCCN(CCC)C(=O)c1cccc(-n2sc3ccccc3c2=O)c1`, for which the IC50 in assay [4] is 18.1 µM (active). With `CCOC(=O)C(CC)(CC)C(=O)/C=C/c1ccc(Br)cc1`, in the assay with Vero, the CC50 is 40.6 µM (active). Further, in assay [5], the AC50 is 20.6 µM (active). Take `CCCn1c(SCC(N)=O)nc2c(c1=O)C1(CCCC1)Cc1ccccc1-2`: in assay [6], the EC50 was 4.67 µM (active). On to `CSc1ncc(C(=O)Nc2ccc(Cl)cc2)c(C)n1`, for which the EC50 in [7] is 0.0222 µM (active). With `Cc1ccc(NC2=Nc3ccccc3N3C2=Nc2c(c(C)nn2-c2ccccc2)C3c2ccc(O)c(O)c2)cc1` (centres undefined), the IC50 at Protein skinhead-1 was > 100 µM (inactive); in assay [8], 4.5 µM (active).

As for `S=C(NNC(=S)Nc1ccc(Cl)cc1)Nc1ccccc1`, at NADPH oxidase 1, the 50% inhibitory concentration (IC50) was 0.725 µM (active).

As for `CCCCCCC#CC1C=CC(OC(C)=O)C(COC(C)=O)O1` (centres undefined), the AC50 was 3.98 µM (inconclusive) on Cytochrome P450 3A4, 7.94 µM (inconclusive) at Cytochrome P450 2D6 and 3.98 µM (inconclusive) at Cytochrome P450 2C19.

Broadly, the EC50 is the concentration giving half of the maximal effect. As usually defined, the IC50 is the concentration that gives 50% inhibition. What is called CC50 is the concentration giving 50% cytotoxicity.

The values above are taken from ChEMBL document CHEMBL1201862, “PubChem BioAssay data set” (2004).
